{"source": "patent US12226390B2", "about": "“Cannabinoids compositions with polyunsaturated fatty acid monoglycerides, methods and uses thereof” (SCF PHARMA INC., priority 2019, dated 2025)", "key": {"[1]": {"assay": "Comparative human absorption cross-over study of CBD in compound of formula (IV) versus MCT oil", "assay_type": "in vivo", "procedure": "54 mg of cannabidiol (CBD) was dissolved in 2.5 g of compound of formula (IV) to give a clear solution. 1.16 g of the mixture (25 mg CBD) was encapsulated in two (2) hard gel capsules (size 00) for absorption study. A pilot absorption study was conducted in one volunteer. The two (2) hard gel capsules were swallowed with a glass of water by the volunteer fasted for 10 h. 200 ul of blood was collected by a lancet in a heparinised microtube at T=0, 1, 2, 3, 4, 5, 6, 7 and 8 h. The plasma was analyzed by HPLC/MS/MS to quantify the CBD. A comparative study was conducted with the same amount of CBD but with MCT oil (medium-chain triglycerides oil) instead of compound of formula (IV)."}, "[2]": {"assay": "CBD solubility in carrier oils", "assay_type": "physicochemical", "settings": "for solubility: oil or lipid"}, "[3]": {"settings": "400 mg CBD in corn oil, orally administered; cited from earlier work"}, "[4]": {"assay": "Human absorption study of composition 1 (cannabinoid extract containing CBDA in compound of formula IV and EPA fish oil)", "assay_type": "in vivo", "procedure": "Cannabis dried flowers (7 g) was extracted with ethanol (100 ml) for 72 h at room temperature. The flowers was filtered and the ethanol was removed under vacuum without heating to give the cannabinoid crude extract (1.9 g) containing 85% CBDA and 4% THCA. The crude extract (315 mg) was dissolved in a mixture of compound of formula (IV) and EPA concentrated ethyl ester fish oil (3.5 g) to give composition 1.\n2.47 g of composition 1 was encapsulated in four (4) hard gel capsules (size 00) for absorption study. A pilot absorption study was conducted in one volunteer. The four (4) hard gel capsules were swallowed with a glass of water by the volunteer fasted for 10 h. 200 ul of blood was collected by a lancet in a heparinised microtube at T=0, 0.5, 1, 1.5, 2, 2.5, 3, 3.5, 4, 4.5, and 6.5 h. The plasma was analyzed by HPLC/MS/MS to quantify the CBDA."}, "[5]": {"molecular_target": "T1, COX-2 (Homo sapiens, UniProt P35354)", "T1 sequence (P35354 18-604)": "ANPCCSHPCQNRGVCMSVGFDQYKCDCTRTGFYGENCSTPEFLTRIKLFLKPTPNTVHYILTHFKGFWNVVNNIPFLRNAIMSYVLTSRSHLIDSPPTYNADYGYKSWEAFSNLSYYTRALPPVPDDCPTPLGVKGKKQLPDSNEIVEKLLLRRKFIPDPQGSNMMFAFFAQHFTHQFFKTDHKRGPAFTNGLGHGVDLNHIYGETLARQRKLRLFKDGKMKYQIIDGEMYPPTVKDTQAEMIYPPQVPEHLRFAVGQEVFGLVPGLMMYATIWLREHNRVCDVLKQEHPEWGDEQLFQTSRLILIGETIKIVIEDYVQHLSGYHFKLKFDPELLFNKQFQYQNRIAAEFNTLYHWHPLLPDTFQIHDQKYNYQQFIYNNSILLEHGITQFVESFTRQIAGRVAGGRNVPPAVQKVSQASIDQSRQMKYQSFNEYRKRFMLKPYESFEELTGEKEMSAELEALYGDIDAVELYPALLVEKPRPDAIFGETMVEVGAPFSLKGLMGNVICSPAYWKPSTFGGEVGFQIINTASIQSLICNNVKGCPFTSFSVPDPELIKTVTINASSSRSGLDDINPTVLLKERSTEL", "settings": "native acid form; cited from earlier work"}, "[6]": {"settings": "stated by Health Canada; cited from earlier work"}, "[7]": {"settings": "native acid form; cited from earlier work"}}}
{"smiles": "C=C(C)[C@@H]1CCC(C)=C[C@H]1c1c(O)cc(CCCCC)cc1O", "note": "[CBD, Cannabidiol]", "values": [{"measurement": "absorption and bioavailability of CBD, compound of formula (IV) over MCT oil", "setting": "[1]; 25 mg CBD oral in hard gel capsules, one volunteer fasted 10 h, plasma 0-8 h, FIG. 1", "value": "superiority"}, {"measurement": "bioavailability", "setting": "[1]; human, plasma, formulated in compound of formula IV, low dose of 25 mg, oral, read-out: CBD more bioavailable than in MCT oil", "value": 200, "unit": "%"}, {"measurement": "increase of solubility", "setting": "[2]; formulation containing compound of formula IV and EPA fish oil versus corn oil", "value": 33, "unit": "%"}, {"measurement": "solubility", "setting": "[2]; in a formulation containing compound of formula IV and EPA fish oil", "value": 400, "unit": "mg/mL"}, {"measurement": "solubility", "setting": "[2]; in corn oil", "value": "~300", "unit": "mg/mL"}, {"measurement": "Cmax in plasma", "setting": "[3]", "value": 181, "unit": "ng/mL"}]}
{"smiles": "C=C(C)[C@@H]1CCC(C)=C[C@H]1c1c(O)cc(CCCCC)c(C(=O)O)c1O", "note": "[CBDA, Cannabidiolic Acid]", "values": [{"measurement": "increase of the Cmax", "setting": "[4]; 170 mg CBDA in compound of formula IV versus 400 mg CBD in corn oil (half of the dose)", "value": 500, "unit": "%"}, {"measurement": "Cmax", "setting": "[4]; human, plasma, cannabinoid extract containing 170 mg of CBDA in compound of formula IV, oral, one fasted volunteer", "value": 1000, "unit": "ng/mL"}, {"measurement": "COX-2 inhibition", "setting": "[5]", "value": "COX-2 inhibitor"}]}
{"smiles": "CCCCCc1cc(O)c2c(c1)OC(C)(C)[C@@H]1CCC(C)=C[C@@H]21", "note": "[THC, Tetrahydrocannabinol]", "values": [{"measurement": "oral bioavailability", "setting": "[6]", "value": 10, "unit": "%"}]}
{"smiles": "CCCCCc1cc2c(c(O)c1C(=O)O)[C@@H]1C=C(C)CC[C@H]1C(C)(C)O2", "note": "[THCA, Tetrahydrocannabinolic acid]", "values": [{"measurement": "psychotropic effect", "setting": "[7]", "value": "no psychotropic effect"}]}
